≈ marks a conversion by molar mass, not a printed value. Where “and” joins values, the source holds several entries; their conditions need not be identical. Equal values may be shown once.
Columns and labels:
[1] = tested on: E. cloacae; test: Broth dilution MIC/MBC; type: cell-based, Enterobacter cloacae; conditions: for MBC / MIC: Enterobacter cloacae; for MBC: read-out: MBC E. cloacae; for MIC: read-out: MIC E. cloacae
[2] = tested on: B. pumilus; test: Broth dilution MIC/MBC; type: cell-based, Bacillus pumilus; conditions: for MBC / MIC: Bacillus pumilus; for MBC: read-out: MBC B. pumilus; for MIC: read-out: MIC B. pumilus
[3] = tested on: S. cerevisiae; test: Broth dilution MIC/MFC; type: cell-based, Saccharomyces cerevisiae; conditions: for MFC / MIC: Saccharomyces cerevisiae; for MFC: read-out: MFC S. cerevisiae; for MIC: read-out: MIC S. cerevisiae
[4] = tested on: C. albicans; test: Broth dilution MIC/MFC; type: cell-based, Candida albicans; conditions: for MFC: read-out: MFC C. albicans
[5] = tested on: S. faecalis; test: Broth dilution MIC/MBC; type: cell-based, Streptococcus faecalis; conditions: for MBC / MIC: Enterococcus faecalis; for MBC: read-out: MBC S. faecalis; for MIC: read-out: MIC S. faecalis
[6] = tested on: E. coli; test: Broth dilution MIC/MBC; type: cell-based, Escherichia coli; conditions: for MBC / MIC: Escherichia coli; for MBC: read-out: MBC E. coli; for MIC: read-out: MIC E. coli
[7] = tested on: Aspergillus fumigatus; conditions: cited from earlier work
[8] = tested on: C. albicans; conditions: cited from earlier work
[9] = tested on: S. aureus; conditions: cited from earlier work
[10] = tested on: B. subtilis; conditions: cited from earlier work
[11] = tested on: Escherichia coli; conditions: cited from earlier work
[12] = tested on: E. coli; test: Time-kill kinetic test; type: cell-based; conditions: 1x MIC
[13] = tested on: methicillin-resistant S. aureus; conditions: cited from earlier work
[14] = biological target: DNA gyrase A (Escherichia coli, UniProt P0AES4); test: DNA gyrase supercoiling assay; type: biochemical; conditions: IC50 ± SD DNA gyrase A, E. coli DNA gyrase supercoiling
[15] = tested on: WI38 cells; test: In vitro cytotoxicity MTT assay; conditions: Homo sapiens, WI-38, 48 h, read-out: WI-38 IC50 ± SD

Row | MBC/ MIC ratio E. cloacae [1] | MIC [1] [µg/mL] | MBC/ MIC ratio B. pumilus [2] | MIC [2] [µg/mL] | MFC/ MIC ratio S. cerevisiae [3] | MIC [3] [µg/mL] | MFC/ MIC ratio C. albicans [4] | MBC/ MIC ratio S. faecalis [5] | MIC [5] [µg/mL] | MBC/ MIC ratio E. coli [6] | MIC [6] [µg/mL] | Molecule | MBC [1] [µg/mL] | MBC [2] [µg/mL] | MFC [3] [µg/mL] | MFC ([4]; Candida albicans) [µg/mL] | MBC [5] [µg/mL] | MBC [6] [µg/mL] | further results
1 | 8 | 3.91 (≈ 18.9 µM) | 4 | 31.3 (≈ 151 µM) | 4 | 31.3 (≈ 151 µM) | 4 | 4 | 7.81 (≈ 37.7 µM) | 4 | 15.6 (≈ 75.3 µM) | Cc1c(C(N)=O)c(N)n(N)c(=O)c1C#N [Compound 3a, 1,2-diamino-5-cyano-4-methyl-6-oxo-1,6-dihydropyridine-3-carboxamide] | 31.3 (≈ 151 µM) | 125 (≈ 603 µM) | 125 (≈ 603 µM) | 500 (≈ 2410 µM) | 31.3 (≈ 151 µM) | 62.5 (≈ 302 µM) | –
2 | – | – | – | – | – | – | – | – | – | – | – | C[C@@H]1[C@H](O)[C@@H](C)/C=C/C=C/C=C/C=C/C=C/C=C/C=C/[C@H](O[C@@H]2O[C@H](C)[C@@H](O)[C@H](N)[C@@H]2O)C[C@@H]2O[C@](O)(C[C@@H](O)C[C@@H](O)[C@H](O)CC[C@@H](O)C[C@@H](O)CC(=O)O[C@H]1C)C[C@H](O)[C@H]2C(=O)O [amphotericin B] | – | – | – | – | – | – | MIC Aspergillus fumigatus [7]: 1.95 µg/mL (≈ 2.11 µM); MIC C. albicans [8]: 1.95 µg/mL (≈ 2.11 µM)
3 | – | – | – | – | – | – | – | – | – | – | – | C[C@@H]1[C@H](O)[C@@H](C)/C=C/C=C/CC/C=C/C=C/C=C/C=C/C(O[C@H]2O[C@H](C)[C@@H](O)[C@H](N)[C@@H]2O)CC2O[C@](O)(CC(O)C(O)CCC(O)CC(O)CC(O)CC(=O)O[C@H]1C)CC(O)C2C(=O)O (stereo partly drawn) [nystatin] | – | – | – | – | – | – | MIC C. albicans [8]: 1.95 µg/mL (≈ 2.11 µM)
4 | – | – | – | – | – | – | – | – | – | – | – | N[C@@H](C(=O)N[C@@H]1C(=O)N2C(C(=O)O)=C(Cl)CS[C@H]12)c1ccccc1 [cefaclor] | – | – | – | – | – | – | MIC S. aureus [9]: 2.4 µg/mL (≈ 6.53 µM); MIC B. subtilis [10]: 2.4 µg/mL (≈ 6.53 µM)
5 | 4 | 62.5 (≈ 190 µM) | 2 | 62.5 (≈ 190 µM) | 2 | 62.5 (≈ 190 µM) | 4 | 4 | 7.81 (≈ 23.8 µM) | 4 | 31.3 (≈ 95.3 µM) | CN(C)c1ccc(-c2c(C(N)=S)c(N)n(N)c(=O)c2C#N)cc1 [Compound 4c, 1,2-diamino-5-cyano-4-(4-(dimethylamino)phenyl)-6-oxo-1,6-dihydropyridine-3-carbothioamide] | 250 (≈ 761 µM) | 125 (≈ 381 µM) | 125 (≈ 381 µM) | 62.5 (≈ 190 µM) | 31.3 (≈ 95.3 µM) | 125 (≈ 381 µM) | MIC ([4]; Candida albicans, read-out: MIC C. albicans, broth dilution): 15.6 µg/mL (≈ 47.5 µM)
6 | – | – | – | – | – | – | – | – | – | – | – | CC1COc2c(N3CCN(C)CC3)c(F)cc3c(=O)c(C(=O)O)cn1c23 (stereo not drawn) [ofloxacin] | – | – | – | – | – | – | IZ E. coli [11]: 24 mm
7 | – | – | – | – | – | – | – | – | – | – | – | gentamycin [reference compound] | – | – | – | – | – | – | Time to bactericidal activity against E. coli [12]: 90 to 120 min and 120 min
8 | – | – | – | – | – | – | – | – | – | – | – | CN[C@H](CC(C)C)C(=O)N[C@H]1C(=O)N[C@@H](CC(N)=O)C(=O)N[C@H]2C(=O)N[C@H]3C(=O)N[C@H](C(=O)N[C@H](C(=O)O)c4cc(O)cc(O)c4-c4cc3ccc4O)[C@H](O)c3ccc(c(Cl)c3)Oc3cc2cc(c3O[C@@H]2O[C@H](CO)[C@@H](O)[C@H](O)[C@H]2O[C@H]2C[C@](C)(N)[C@H](O)[C@H](C)O2)Oc2ccc(cc2Cl)[C@H]1O [vancomycin] | – | – | – | – | – | – | MIC methicillin-resistant S. aureus [13]: 1 µg/mL (≈ 0.69 µM)
9 | 4 | 7.81 (≈ 20.8 µM) | 4 | 15.6 (≈ 41.6 µM) | 2 | 31.3 (≈ 83.4 µM) | 4 | 4 | 15.6 (≈ 41.6 µM) | 4 | 3.91 (≈ 10.4 µM) | N#Cc1c(-c2ccc(OCc3ccccc3)cc2)c(C(N)=O)c(N)n(N)c1=O [Compound 3d, 1,2-diamino-4-(4-(benzyloxy)phenyl)-5-cyano-6-oxo-1,6-dihydropyridine-3-carboxamide] | 31.3 (≈ 83.4 µM) | 62.5 (≈ 166 µM) | 62.5 (≈ 166 µM) | 500 (≈ 1330 µM) | 62.5 (≈ 166 µM) | 15.6 (≈ 41.6 µM) | IC50 [14]: 4.48 µM and 4.49 µM; Time to bactericidal activity against E. coli [12]: 90 to 120 min and 90 min; IC50 [15]: 48.8 ± 2.07 µM

Reference: publication PMC11562494 (BMC Chemistry, 2024)
